From US7488823B2, “Cyanoguanidines and cyanoamidines as ErbB2 and EGFR inhibitors” (Array Biopharma, Inc., priority 2003, dated 2009) come the findings set out here.

Sequence of ErbB2 (P04626 23-1255): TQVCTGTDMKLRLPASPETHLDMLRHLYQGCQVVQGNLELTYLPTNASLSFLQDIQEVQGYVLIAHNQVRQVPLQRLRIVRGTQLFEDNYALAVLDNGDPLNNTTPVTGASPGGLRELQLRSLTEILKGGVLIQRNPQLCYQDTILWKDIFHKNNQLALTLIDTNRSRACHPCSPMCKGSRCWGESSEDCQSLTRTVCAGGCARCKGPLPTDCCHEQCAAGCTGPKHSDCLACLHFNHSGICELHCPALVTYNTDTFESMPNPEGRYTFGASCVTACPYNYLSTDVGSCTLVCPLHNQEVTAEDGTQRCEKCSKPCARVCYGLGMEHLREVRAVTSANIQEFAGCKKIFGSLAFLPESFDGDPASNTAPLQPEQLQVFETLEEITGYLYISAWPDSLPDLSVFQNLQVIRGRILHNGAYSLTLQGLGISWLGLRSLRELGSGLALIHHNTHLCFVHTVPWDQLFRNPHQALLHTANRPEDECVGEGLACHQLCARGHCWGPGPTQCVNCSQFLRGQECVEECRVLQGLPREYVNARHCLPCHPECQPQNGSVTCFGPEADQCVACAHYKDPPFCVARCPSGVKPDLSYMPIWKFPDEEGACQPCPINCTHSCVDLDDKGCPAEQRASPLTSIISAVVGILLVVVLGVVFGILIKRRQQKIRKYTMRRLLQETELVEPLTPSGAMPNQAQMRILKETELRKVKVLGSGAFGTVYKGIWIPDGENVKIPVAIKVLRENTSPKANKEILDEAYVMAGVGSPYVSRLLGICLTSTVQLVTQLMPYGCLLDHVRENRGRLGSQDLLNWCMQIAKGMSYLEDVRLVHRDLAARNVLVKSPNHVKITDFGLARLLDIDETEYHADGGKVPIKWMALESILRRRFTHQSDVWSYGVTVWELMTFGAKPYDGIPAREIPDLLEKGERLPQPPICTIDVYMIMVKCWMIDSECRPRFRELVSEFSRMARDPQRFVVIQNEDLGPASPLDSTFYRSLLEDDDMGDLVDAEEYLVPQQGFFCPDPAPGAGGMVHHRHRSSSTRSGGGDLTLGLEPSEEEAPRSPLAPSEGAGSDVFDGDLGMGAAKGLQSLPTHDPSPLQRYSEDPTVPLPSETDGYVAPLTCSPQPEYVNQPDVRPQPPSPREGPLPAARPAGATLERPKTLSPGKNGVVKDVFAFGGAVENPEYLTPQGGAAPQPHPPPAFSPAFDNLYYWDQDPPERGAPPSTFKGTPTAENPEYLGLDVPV

The target in the assay is ErbB2 (Homo sapiens, UniProt P04626). The assay is described as follows: ErbB kinase ELISA on poly-Glu-Tyr 4:1 coated microtiter plates. Format: biochemical. The following applies: PGT substrate, ATP, baculovirus ErbB2, 30 minutes at room temperature, optical density at 450 nm. On the procedure:
The extent to which the compounds of the present invention modulate ErbB kinase activity can be determined using the following enzyme-linked immunosorbent assay (ELISA), which employs a microtiter plate coated with a protein tyrosine kinase specific polymer substrate. The phosphorylation reaction is performed on poly-Glu-Tyr 4:1 (PGT) coated microtiter plates in the presence on Mg^++, ATP and EGFR. The phosphorylated polymer substrate is detected with a phosphotyrosine specific monoclonal antibody conjugated to horseradish peroxidase (HRP). Chromogenic substrate (TMB) color is quantitiated by spectrophotometry.
The assay is performed in a 96-well microtiter plate (Immunlon 4, available from Dynex). To prepare the plate, 100 μL of 0.25 mg/mL Poly (Glu,Tyr) 4:1 Sodium Salt (available from Sigma, Catalog Number P0275) in phosphate buffered saline (PBS) is added to each well and the plates are sealed. Following incubation overnight at ambient temperature, this coating solution is removed and the plates are washed three times with 300 μL of 0.1% Tween 20 (available from Sigma, Catalog Number P2287) in PBS. If not using immediately, the coated microtiter plates may be stored at 2-8° C. with 150 μL of 0.1% Tween 20 in PBS in each well.
The compound to be tested is dissolved in DMSO at an initial concentration of 1.0 mM. This initial concentration is diluted 1:25 in DMSO, and the resulting solution is further serially diluted 1:5 eight times in DMSO. To 10 μL of the initial concentration and each dilution are added 240 μL Reaction Buffer (50 mM HEPES, 125 mM NaCl, 24 mM MgCl2, 0.1 mM Na3VO4 (boiled at pH 10 until colorless—approximately 10 minutes—and cooled prior to use), pH 7.3, filtered through a 0.2 micron filter). 25 μL of each compound solution (4% DMSO in Reaction Buffer for control) is placed in a separate microtiter plate well, along with 50 μL Reaction Buffer +ATP (15 μL 10 of mM ATP added to 5 mL Reaction Buffer) and 25 μL Reaction Buffer into which a catalytic amount of baculovirus ErbB2 has been added. The plate is then covered and incubated for 30 minutes at room temperature, after which time all liquid is aspirated from each well. The plate is washed three times with 300 μL of 0.1% Tween in PBS. Residual wash solution is removed by inverting the plate and blotting on a paper towel.
To each well is then added 100 μL of PBS containing 3% bovine serum albumin (protease-free, IgG-free, Jackson Catalog Number 001-000-162), 0.05% Tween 20 and 0.2 μg/mL anti-phosphotyrosine horseradisn peroxidase (available from Zymed, Laboratories, Inc., Catalog Number 03-7720). The plate is covered and incubated for 30 minutes at room temperature, after which time all liquid is aspirated from each well. The plate is washed three times with 300 μL of 0.1% Tween in PBS. Residual wash solution is removed by inverting the plate and blotting on a paper towel. To each well is then added 100 μL of TMB peroxidase substrate system (KPL Catalog Number 50-76-00), and the plate is allowed to incubate for 25 minutes at room temperature, at which time the reaction is stopped by the addition of 100 μL of 1M phosphoric acid to each well. The plate is tapped gently to ensure mixing.
Within about thirty minutes after the reaction is stopped, the optical density at 450 nm of each well is determined using a microtiter plate reader. A dose response curve is generated by plotting optical density versus compound concentration. IC50 is calculated from this curve using methods known in the art.
(In general: ELISA stands for enzyme-linked immunosorbent assay.)
The IC50 is the concentration at which inhibition is half-maximal. In turn, `COc1cc2ncnc(Nc3ccc(OCc4ccccn4)c(Cl)c3)c2cc1OCCCN/C(=N\C#N)N(C)C` [Example 7, N-(3-{4-[3-Chloro-4-(pyridin-2-ylmethoxy)-phenylamino]-7-methoxy-quinazolin-6-yloxy}-propyl)-N′-cyano-N″,N″-dimethylguanidine] showed a 50% inhibitory concentration (IC50) of 33 nM. On to `CN/C(=N/C#N)NCCCOc1cc2c(Nc3ccc(OCc4cccc(F)c4)c(Cl)c3)ncnc2cc1OC` [Example 8, N-(3-{4-[3-Chloro-4-(3-fluoro-benzyloxy)-phenylamino]-7-methoxy-quinazolin-6-yloxy}-propyl) -N′-cyano-N″-methylguanidine], for which half-maximal inhibition (IC50) required 40 nM.

`N#C/N=C(\NCc1ccc(-c2ccc3ncnc(Nc4ccc(OCc5cccc(F)c5)c(Cl)c4)c3c2)o1)N1CCOCC1` [Example 4, N-(5-{4-[3-Chloro-4-(3-fluoro-benzyloxy)-phenylamino]-quinazolin-6-yl}-furan-2-ylmethyl)-N′-cyano-morpholine-4-carboxamidine] displayed an IC50 of 13 nM. The molecule `N#C/N=C(\NCC#Cc1ccc2ncnc(Nc3ccc4c(cnn4Cc4cccc(F)c4)c3)c2c1)N1CCOCC1` [Example 9, N-cyano-N′-(3-{4-[1-(3-Fluoro-benzyl)-1 H-indazol-5-ylamino]-quinazolin-6-yl}-prop-2-ynyl)-morpholine-4-carboxamidine] displayed an IC50 of 12 nM. The molecule `COc1cc2ncnc(Nc3ccc(OCc4ccccn4)c(Cl)c3)c2cc1OCCCN/C(=N\C#N)N(C)CCN(C)C` [Example 6, N-(3-{4-[3-Chloro-4-(pyridin-2-ylmethoxy)-phenylamino]-7-methoxy-quinazolin-6-yloxy}-propyl)-N′-cyano-N″-(2-dimethylamino-ethyl)-N″-methylguanidine] had an IC50 of 14 nM. `Cc1ccc(Oc2ccc(Nc3ncnc4ccc(-c5csc(CN/C(N)=N\C#N)n5)cc34)cc2C)cn1` [Example 5, N-cyano-N′-(4-{4-[3-Methyl-4-(6-methyl-pyridin-3-yloxy)-phenylamino]-quinazolin-6-yl}-thiazol-2-ylmethyl)guanidine] yielded an IC50 of 31 nM. In turn, `Cc1ccc(Oc2ccc(Nc3ncnc4ccc(C#CCN/C(N)=N/C#N)cc34)cc2C)cn1` [Example 3, N-cyano-N′-(3-{4-[3-Methyl-4-(6-methyl-pyridin-3-yloxy)-phenylamino]-quinazolin-6-yl}-prop-2-ynyl)guanidine] yielded an IC50 of 8 nM. Regarding `CN(C)/C(=N\C#N)NCC#Cc1ccc2ncnc(Nc3ccc(OCc4cccc(F)c4)c(Cl)c3)c2c1` [Example 1, N-(3-{4-[3-Chloro-4-(3-fluoro-benzyloxy)-phenylamino]-quinazolin-6-yl}-prop-2-ynyl)-N′-cyano-N″,N″-dimethylguanidine], inhibition was half-maximal at 85 nM (IC50). With `N#C/N=C(/NCC#Cc1ccc2ncnc(Nc3ccc(OCc4cccc(F)c4)c(Cl)c3)c2c1)NCCO` [Example 2, N-(3-{4-[3-Chloro-4-(3-fluoro-benzyloxy)-phenylamino]-quinazolin-6-yl}-prop-2-ynyl)-N′-cyano-N″-3-(2-hydroxy-ethyl)guanidine] the figure was 410 nM; with `COCCN(C)/C(=N/C#N)NC/C=C/c1ccc2ncnc(Nc3ccc4c(cnn4Cc4cccc(F)c4)c3)c2c1` [Example 10, N-cyano-N′-(3-{4-[1-(3-Fluoro-benzyl)-1H-indazol-5-ylamino]-quinazolin-6-yl}-allyl)-N″-(2-methoxy-ethyl)-N″-methylguanidine], 17 nM.
